# “And” between values parts separate entries of the source, which are not always exact repeats. Identical values can stand only once.
# System: Cell-based prion protein 5' UTR reporter, plate reader
# Experiment: prion protein 5' UTR mRNA inhibitors – cell-based, plate reader, cherry-picked samples, dose response (AID 504539)
row,Compound,AC50
1,CC(/C=C1\SC(=O)N(CCCC(=O)O)C1=O)=C\c1ccccc1,0.162 µM
2,CC(C)(C)C1C/C(=C/c2ccccn2)C(=O)/C(=C/c2ccccn2)C1 (centres undefined),0.815 µM
3,O=C(CN1C(=O)c2ccccc2S1(=O)=O)c1ccc(OC(F)F)cc1,0.657 µM
4,O=C1NC2C(=CC(O)C(O)C2O)c2cc3c(c(O)c21)OCO3 (centres undefined),0.205 µM
5,C[C@H]1O[C@@H](OC2CC[C@]3(C=O)[C@H]4CC[C@]5(C)[C@@H](C6=CC(=O)OC6)CC[C@]5(O)[C@@H]4CC[C@]3(O)C2)CC2OC(C)(C)OC21 (some centres undefined),0.123 µM
6,CN(C)CCN1C(=O)c2cccc3cc([N+](=O)[O-])cc(c23)C1=O,0.433 µM
7,O=C(CCCc1ccccc1)c1ccc2c(c1)OCCO2,0.344 µM
8,COC(C(=O)C(O)C(C)O)C1Cc2cc3cc(OC4CC(OC5CC(O)C(O)C(C)O5)C(O)C(C)O4)c(C)c(O)c3c(O)c2C(=O)C1OC1CC(OC2CC(OC3CC(O)C(OC)C(C)O3)C(O)C(C)O2)C(O)C(C)O1 (centres undefined),0.083 µM
9,COC(=O)C12OCC34C(CC5C(C)=C(O)C(=O)CC5(C)C3C(O)C1O)OC(=O)C(OC(=O)/C=C(\C)C(C)C)C24 (centres undefined),< 0.038 µM
10,CC(C)(C)c1ccc(C(=O)Nc2ccc(CC(=O)O)cc2)o1,0.312 µM
11,Cc1c(C(=O)OCC(C)C)[nH]c2c1C(=O)CC(c1ccco1)C2 (centres undefined),1.26 µM
12,COc1cc(SC)ccc1C(=O)Nc1nc(C)cs1,0.216 µM
13,c1cc2c(cc1C1=NNC(=NC3CC3)SC1)OCCO2,0.189 µM
14,Nc1ccc(-c2cc3ccccc3c(=O)o2)cc1,0.467 µM
15,COc1c(C=O)c2c(c(OC)c1OC)-c1ccc(OC)c(=O)cc1C(NC(C)=O)CC2 (centres undefined),0.3 µM
16,O=C(O)c1ccc(N/N=C/c2ccc3c(c2)OCO3)cc1,0.419 µM
17,OCCCNc1cc(-c2ccnc(Nc3cccc(Cl)c3)n2)ccn1,0.181 µM
18,Cc1ccc2nc(-c3ccccc3)cn2c1,0.21 µM
19,COc1cc(C2c3cc4c(cc3C(OC3OC5COC(c6cccs6)OC5C(O)C3O)C3COC(=O)C23)OCO4)cc(OC)c1O (centres undefined),0.657 µM
20,COc1cc2cc(C(=O)N3CC(COS(C)(=O)=O)c4ccc(O)cc43)[nH]c2c(OC)c1OC (centres undefined),< 0.038 µM
21,COc1ccc(-c2nsc3c(N4CCCCC4C)ncnc23)cc1 (centres undefined),0.051 µM
22,CCN(CC)c1ccc(-c2nn3c(-c4n[nH]c5c4CCC5)nnc3s2)cc1,0.986 µM

row,Compound,AC50
1,CCCCN=C[C@]12CCC(O)CC1(O)CCC1[C@@H]2CC[C@]2(C)[C@H](C3C=CC(=O)O3)CCC12O (some centres undefined),0.243 µM
2,Cc1cc([N+](=O)[O-])c2ccccc2[n+]1[O-],0.256 µM
3,O=C(Nc1ccc([N+](=O)[O-])cc1)C(=O)Nc1cccc(C(=O)O)c1,0.164 µM
4,O=C(Nc1cccc(C(=O)O)c1)Nc1ccc2c(c1)OCO2,0.397 µM
5,COC(=O)CCC(=O)NC(=S)Nc1sc(C)c(C)c1C(N)=O,0.636 µM
6,CCOc1ccc(OCc2cccc(C(=O)N3CCOCC3)c2)cc1,0.573 µM
7,CN=c1scc(-c2ccccc2F)n1/N=C/c1ccc[nH]1,< 0.038 µM
8,COc1cc(-c2noc(C)c2/C=C/c2cccc([N+](=O)[O-])c2)cc(OC)c1OC,2.54 µM
9,Cc1ccc(C(=O)O/N=C(\N)c2ccccn2)cc1C,0.708 µM
10,CC1CCN(c2ccc(-c3cccc(NC(=O)C(F)(F)F)c3)nn2)CC1,0.194 µM
11,COc1ccc(C(=O)/C=C/Nc2ccccn2)cc1,0.369 µM
12,COc1ccc2c(c1)sc1nc(-c3ccccc3)cn12,0.556 µM
13,C[C@H]1[C@@H](OS(=O)(=O)O)C[C@@H]2C[C@H]([C@@H](O)c3cc(=O)[nH]c(=O)[nH]3)NC3=NC[C@H]1N32,2.56 µM
14,CCOc1ccc2c(c1)C(C)=CC(C)(C)N2S(=O)(=O)c1ccc(C)cc1,1.59 µM
15,COc1ccc(N=CC2=C(O)c3ccccc3C2=O)c(OC)c1,1.17 µM
16,CC1CC(C)(O)CC(C(O)CC2CC(=O)NC(=O)C2)C1=O (centres undefined),0.493 µM
17,COc1ccc(C(=O)NN(C)c2nc(C(F)(F)F)nc3ccccc23)cc1,0.163 µM
18,Cc1ccc(C(=O)O/N=C(\N)c2ccccc2)c(Cl)c1,0.948 µM
19,Cc1cc(C(=O)CN2C(=O)c3ccccc3S2(=O)=O)c(C)n1C(C)C,2.16 µM
20,C[C@H]1CCC/C=C/C2C[C@H](O)CC2[C@H](O)/C=C/C(=O)O1 (some centres undefined),0.04 µM
21,Cc1ccc(-n2nnc(-c3nccs3)n2)cc1,0.571 µM
22,OCC1OC(n2ccc3c(NO)ncnc32)C(O)C1O (centres undefined),0.189 µM

row,Compound,AC50
1,COc1ccc(OC)c(-c2nnc3n2N=C(c2ccc(OC)c(OC4CCOC4)c2)CS3)c1 (centres undefined),0.554 µM
2,CC1CCCN(c2ccc([N+](=O)[O-])cc2C(=O)c2ccccc2)C1 (centres undefined),1.67 µM
3,Cc1c(C(=O)N/N=C/c2ccc(Cl)cc2)[nH]c2ccc(Cl)cc12,1.09 µM
4,COC(=O)c1cc(C(=O)N2CCN(c3cccc(Cl)c3)CC2)cc([N+](=O)[O-])c1,0.47 µM
5,Cc1ccc(-c2cc3c(N=O)c4ccccc4c-3n[nH]2)cc1,0.438 µM
6,O=C(CN1C(=O)c2ccccc2S1(=O)=O)c1ccc2c(c1)OCCO2,0.114 µM
7,O=C(/C=C/c1ccccc1)Nc1cccc(C(=O)O)c1,0.392 µM
8,Cn1cccc1/C=C1\SC(=Nc2ccc(O)cc2)NC1=O,0.63 µM
9,C[C@H]1CCC/C=C/[C@@H]2C[C@H](O)C[C@H]2[C@H](O)/C=C/C(=O)O1,0.072 µM and 0.051 µM
10,Cc1cc(/C=N/Nc2ncnc(N)c2[N+](=O)[O-])c(C)n1-c1ccccc1,0.636 µM
11,Cc1nn(-c2ccccc2Cl)c(Cl)c1/C=N/Nc1cccc(C(=O)O)c1,0.576 µM
12,O=[N+]([O-])c1nn(-c2ccc3c(c2)OCCO3)n(O)c1=Nc1ccccc1,0.18 µM
13,COc1cccc(NC(=O)Nc2cccc(C(=O)O)c2)c1,0.645 µM
14,CCN1CCN(Cc2ccc(NC(=O)c3ccc(C)c(NC(=O)c4cncc(-c5cccs5)c4)c3)cc2C(F)(F)F)CC1,0.156 µM
15,CCCc1ccc(C(=O)O/N=C(\N)c2ccccn2)cc1,1.08 µM
16,O=C(NNC(=O)c1ccccc1O)c1ccccc1O,0.234 µM
17,Cc1cc(C(=O)COC(=O)c2ccccc2Br)c(C)n1CC1CCCO1 (centres undefined),0.09 µM
18,C[C@]12CC[C@H](O)C[C@H]1CC[C@@H]1[C@@H]2C[C@@H](O)[C@]2(C)[C@@H](C3=CC(=O)OC3)CC[C@]12O,0.374 µM
19,CC(C)(C)c1ccc(C(=O)O/N=C(\N)c2ccccn2)cc1,0.317 µM
20,CCOC(=O)C(C)Oc1cccc2c(=O)n(CC(=O)NCc3ccccc3)ccc12 (centres undefined),0.919 µM
21,Cc1cc(/C=C2\SC(=S)N(C)C2=O)c(C)n1-c1ccc(O)cc1,0.13 µM
22,Cc1ccc(/C=C2\SC(=S)N(CCCC(=O)NNC(=O)c3ccccc3O)C2=O)cc1,0.428 µM

row,Compound,AC50
1,COc1ccc(OC)c(N/C=C/C(=O)c2ccccc2)c1,0.558 µM
2,N/C(=N\OCc1ccc([N+](=O)[O-])cc1)c1ccccn1,0.219 µM
3,O=C(O)c1cccc(-c2noc(-c3cccc(Cl)c3)n2)c1,0.153 µM
4,C/C(=N\NC(=O)c1n[nH]c2c1CCC2)c1cccs1,0.401 µM
5,NC1=C(Cl)C(=O)c2ccc(S(N)(=O)=O)cc2C1=O,0.226 µM
6,CN(c1ccc2nc3ccccc3c(=O)n2n1)C1CCCCC1,0.574 µM
7,CCN(CC)c1ccc2cc(-c3nc4ccccc4[nH]3)c(=O)oc2c1,0.868 µM
8,C=CCN=C1NN=C(c2ccc3c(c2)OCCO3)CS1,0.411 µM
9,CC1CCCN(c2ncnc3c2cnn3-c2ccc(Cl)cc2)C1 (centres undefined),< 0.038 µM
10,COc1ccc(OC)c(-c2nnc3n2N=C(c2ccc(OC)c(OC)c2)CS3)c1,0.261 µM
11,CCOC(=O)c1ccc(NC(=O)Nc2ccon2)cc1,0.596 µM
12,COc1cc(C2c3[nH]c4ccccc4c3CC3COC(=O)N32)cc(OC)c1O (centres undefined),0.27 µM
13,COc1ccc(C[C@H]2NC[C@H](O)[C@H]2OC(C)=O)cc1,0.378 µM
14,CC(=O)OC(C)(C)/C=C/C(=O)C(C)(O)C1[C@H](O)C[C@@]2(C)C3CC=C4C(CC[C@@H](O)C4(C)C)[C@]3(CO)C(=O)C[C@]12C (some centres undefined),0.085 µM
15,CC(C)CCCCCCCCCCCCC(=O)NCC(=O)NC1C(O)C(O)C(Nc2ncnc3nc[nH]c23)OC1C(O)CO (centres undefined),0.087 µM
16,O=C(NCCc1ccccc1)c1ccc2c(c1)OCCO2,0.196 µM
17,Cc1cc(NC(=O)CSc2nc(-c3ccco3)cc(C(F)(F)F)n2)no1,0.56 µM
18,CNC(=O)Oc1ccc(-c2cn3cc(C)ccc3n2)cc1,0.556 µM
19,COc1ccc(OC)c(Nc2c3c(nc4ccccc24)CCC3)c1,1.6 µM
20,COc1cc2c(c(OC)c1O)-c1ccc(OC)c(=O)cc1C(NC(=O)C(F)(F)F)CC2 (centres undefined),0.14 µM
21,COC(=O)CCn1nnc(-c2ccc(C(C)C)cc2)n1,0.314 µM
22,O=C(Nc1ccc(N2CCCCC2)cc1)c1ccccn1,0.273 µM

row,Compound,AC50
1,Cc1ccc(CCC(=O)Nc2ncc(Cc3cccc(Cl)c3Cl)s2)o1,0.358 µM
2,COc1cc(NC(=O)c2cccs2)c(C(=O)OCC(=O)c2cc(C)n(-c3ccccc3)c2C)cc1OC,0.989 µM
3,COc1ccc(C2=Nn3c(nnc3-c3ccccc3OC)SC2)cc1OC,0.395 µM
4,CN1C2CCC1/C(=C/c1ccccn1)C(=O)/C2=C\c1ccccn1,0.773 µM
5,Nc1nc(F)nc2c1ncn2[C@@H]1O[C@H](CO)[C@@H](O)[C@H]1O,0.483 µM
6,Cc1ccc(NC(=O)O/N=C/c2c(C)nn(C(C)(C)C)c2C)cc1Cl,0.27 µM
7,COc1cc(OC)c2c(-c3cccc(-c4ccc(C(C)=O)cc4)c3)cc(=O)oc2c1,1.58 µM
8,O=C(NCCc1ccccc1F)c1ccc2c(c1)OCCO2,0.14 µM
9,CCN(CC)c1ccc(/C=N/N=C(N)N)c(O)c1,1.41 µM
10,Cc1ccc(Sc2c(CO)c(-c3ccccc3)nn2C)cc1,0.528 µM
11,Cc1cc(C)c(C#N)c(SCc2nnc(-c3ccccc3)o2)n1,1.99 µM
12,COc1cc(SC)ccc1C(=O)Nc1ncc(C)s1,0.361 µM
13,COC1C(C)OC(OC2CC(C)(O)Cc3cc4c(c(O)c32)C(=O)c2c(O)cc3c(c2C4=O)OC2OC3(C)C(O)C(N(C)C)C2O)C(OC)C1(C)OC (centres undefined),0.118 µM
14,COC(=O)C1CCC(=O)N1C(c1ccc(OC)cc1)c1cc(OC)c(OC)c(OC)c1 (centres undefined),0.676 µM
15,Cc1nc2ncccn2c1-c1csc(Nc2ccc(N(C)C)cc2)n1,0.168 µM
16,CC(C)(C)c1ccc(Oc2ccc(N)cc2)cc1,0.248 µM
17,COC(=O)c1ccccc1NC(=O)Cn1c(-c2nonc2N)nc2ccccc21,0.605 µM
18,CC(C)c1ccc(-c2nc3ccccc3s2)cc1,< 0.038 µM
19,Cc1ccc(C(=O)NCCc2ccccc2)cc1,0.612 µM
20,CCCCCOC(=O)c1[nH]c2c(c1C)C(=O)CC(c1ccco1)C2 (centres undefined),0.226 µM
21,O=c1c(Cl)c(N2CCCCC2)cnn1-c1nc2ccccc2[nH]1,0.501 µM

# From PubChem BioAssay AID504539 (Broad Institute, 2011)
